Laboratory results taken from patent US9244057B2, “Multiphase microarrays and uses thereof” (THE REGENTS OF THE UNIVERSITY OF MICHIGAN, priority 2010, dated 2016).

System: MDA-MB-231 breast cancer cells
Assay: cell-exclusion migration assay (aqueous two-phase system patterning, 96-well plate)
Type: cell-based, human
Conditions: MDA-MB-231 cells; for effect on motility/migration of cells (in words): blebbistatin 5-200 μM for 18 hrs, then another 12 hrs in culture medium before imaging
Experimental: 6.4% (w/w) solution of the DEX 500K phase was prepared in culture media and kept at 4° C. until use. The tip magazine of an automated liquid handler (CyBi-Well, CyBio) was loaded with 96 sterile 25 μl pipette tips (CyBio). 75 μl of the DEX solution was pipetted into each well of a 96-well microplate (Corning), which was then placed on the stage of the liquid handler. To load pipette tips with the DEX solution, the stage was slowly raised until the pipette tips were slightly inside the DEX solution. 10 μl of the DEX solution was aspirated into the tips at a rate of 5 μl/s. The loaded tips were brought within 200 μm of the bottom of the wells of an empty microplate and 0.8 μl of the DEX solution was dispensed onto the surface at a rate of 0.5 μl/s to form circular droplets. The microplate was kept in a culture hood for at least 24 hrs to allow the droplets to dry. Images of the dried droplets were captured using a bright-field microscope (Nikon, TS-200). The Feret diameters of the droplets were determined using the “Analyze Particles” function of ImageJ (NIH). Droplets whose Feret diameters were not within ˜1% of the desired mean diameter were excluded from use in the assay. The entire printing and drying process was performed in a sterile culture hood.
Three different human cancer cell lines were used: MDA-MB-231 breast cancer cells (ATCC) were cultured in DMEM medium supplemented with 10% heat-inactivated fetal bovine serum (HI-FBS, Invitrogen), 1% glutamine (Invitrogen), and 1% antibiotic. A549 lung cancer cells (ATCC) were cultured using F-12K medium (ATCC) supplemented with 10% HI-FBS and 1% antibiotic. PC-3 prostate cancer cells were maintained in DMEM supplemented with 10% HI-FBS and 1% antibiotic. Cells were maintained in a cell culture incubator at 37° C. with 5% CO2 and 95% humidity. When at desired confluence, cells were washed with PBS and Hank's-based enzyme-free cell dissociation buffer was added to the flask. Cells were incubated for 30 min and then collected and suspended in complete growth medium. After centrifuging down for 5 min at 4° C. and 1000 rpm, cells were resuspended in appropriate volume of the culture medium to give a density of 2×10^6 cells/ml.
5.0% (w/w) solution of the PEG 35K phase was prepared in culture media and kept at 4° C. until use. This solution was added to the cell suspension at a 1:1 (v/v) ratio to give a final PEG phase concentration of 2.5%. Prior to this step, cell suspension density was adjusted by addition of culture media to result in a final density of 4.5×10^4 MDA-MB-231 cells, 4.0×10^4 A549 cells, and 4.5×10^4 PC-3 cells after addition of the PEG-containing media. These cell densities were selected from preliminary experiments that evaluated the number of cells required to form a confluent monolayer per unit surface area. 80 μl of the resulting solution was added to each well of a 96-well plate, which was incubated at 37° C. with 5% CO2 and 95% humidity overnight (12 hrs). Then, the two-phase media was washed out and replaced with regular culture media. This was set as the time zero of the migration experiment.
After allowing MDA-MB-231 cells to spread and form a confluent monolayer around the cell excluded gaps, they were treated with (±)-blebbistatin at different concentrations in the range 5-200 μM or anti-cancer drugs paclitaxel, colchicine, and nocodazole in the concentration range of 1-1000 nM. Cells were incubated for 18 hrs in the presence of blebbistatin, washed with PBS once, and regular culture medium was added. Incubation continued for another 12 hrs before imaging. To study the effect of anti-cancer drugs, cells were incubated with each drug for 2 hrs, washed with PBS, and then supplied with culture medium. Imaging was performed after 30 hrs of incubation. Experiments were set in 30 replicates. All reagents were purchased from Sigma.
After migration experiments were complete, cells were stained with a 5 μM Calcein AM and the plates were incubated at 37° C. for 30 min. […]

[1] = 2 hr treatment, tested 1-1000 nM, imaging after 30 hrs

For `Cc1ccc2c(c1)C(=O)C1(O)CCN(c3ccccc3)C1=N2` (racemic) [blebbistatin, (±)-blebbistatin], the “effect on motility/migration of cells (in words)” value was “dose-dependent response”, the “effect on motility/migration of cells (in words)” value (listed as Blebbistatin) was “dose-dependent inhibition” and the IC50 (six concentrations 5-200 μM for 18 hrs, BioDataFit software, read-out: IC50 for inhibition of cell migration) was 31.8 µM.

For `CC(=O)O[C@H]1C(=O)[C@@]2(C)[C@H]([C@H](OC(=O)c3ccccc3)[C@]3(O)C[C@H](OC(=O)[C@H](O)[C@@H](NC(=O)c4ccccc4)c4ccccc4)C(C)=C1C3(C)C)[C@]1(OC(C)=O)CO[C@@H]1C[C@@H]2O` [Paclitaxel, paclitaxel], the “concentration range showing potency for inhibiting cell motility” value [1] was 0.01 to 0.1 µM.

For `COC(=O)Nc1nc2ccc(C(=O)c3cccs3)cc2[nH]1` [Nocodazole, nocodazole], the reduction of migration [1] was “less than 20%”.

`COc1cc2c(c(OC)c1OC)-c1ccc(OC)c(=O)cc1[C@@H](NC(C)=O)CC2` [colchicine] was tested, and the “effect on cell motility (in words)” value (2 hr treatment, tested 1-1000 nM, imaging after 30 hrs, especially above 100 nM) was “reduced cell motility in a dose-dependent manner”.
